Format in all cases: functional
In experiment [1] the test system is Escherichia coli. The experiment is described as follows: Antibacterial activity against Escherichia coli assessed as zone of inhibition at 400 ug/ml by disc-diffusion method. The conditions noted are these: read-out: IZ.
For experiment [2], the system named is Bacillus subtilis. The experiment is described as follows: Antibacterial activity against Bacillus subtilis assessed as zone of inhibition at 400 ug/ml by disc-diffusion method. The conditions noted are these: read-out: IZ. (In general: In agar diffusion tests the substance spreads into inoculated agar from a disc or well.)
For the next experiment, the system named is Pseudomonas aeruginosa. The experiment is described as follows: Antibacterial activity against Pseudomonas aeruginosa assessed as zone of inhibition at 400 ug/ml by disc-diffusion method. The conditions noted are these: read-out: IZ.
The next experiment has as its system Macrophomina phaseolina. The experiment is described as follows: Antifungal activity against Macrophomina phaseolina assessed as zone of inhibition at 400 ug/ml by disc-diffusion method. The conditions noted are these: read-out: IZ.
The test system of the next experiment is Fusarium oxysporum. The experiment is described as follows: Antifungal activity against Fusarium oxysporum assessed as zone of inhibition at 400 ug/ml by disc-diffusion method. The settings on record: read-out: IZ.
Another experiment relates to Aspergillus flavus. The experiment is described as follows: Antifungal activity against Aspergillus flavus assessed as zone of inhibition at 400 ug/ml by disc-diffusion method. The conditions noted are these: read-out: IZ.
The test system of experiment [3] is Candida albicans. The experiment is described as follows: Antifungal activity against Candida albicans ATCC 1231 assessed as inhibition of fungal growth.
The test system of experiment [4] is Bacillus subtilis. The experiment is described as follows: Antibacterial activity against Bacillus subtilis DSM 6333 assessed as inhibition of bacterial growth.
In the next experiment the test system is Proteus mirabilis. The experiment is described as follows: Antibacterial activity against Proteus mirabilis ATCC 29906 assessed as inhibition of bacterial growth.
In experiment [5] the test system is Staphylococcus aureus. The experiment is described as follows: Antibacterial activity against Staphylococcus aureus […] assessed as inhibition of bacterial growth.
The test system of experiment [6] is Escherichia coli. The experiment is described as follows: Antimicrobial activity against Escherichia coli 1924 assessed as inhibition of microbial growth incubated for 24 hrs by two-fold serial dilution assay.
For experiment [7], the system named is Staphylococcus aureus. The experiment is described as follows: Antimicrobial activity against Staphylococcus aureus 4220 assessed as inhibition of microbial growth incubated for 24 hrs by two-fold serial dilution assay.
Experiment [8] deals with Candida albicans. The experiment is described as follows: Antimicrobial activity against Candida albicans 7535 assessed as inhibition of microbial growth incubated for 24 hrs by two-fold serial dilution assay.
The subject of the next experiment is Streptococcus mutans. The experiment is described as follows: Antimicrobial activity against Streptococcus mutans 3289 assessed as inhibition of microbial growth incubated for 24 hrs by two-fold serial dilution assay.
Experiment [9] deals with Staphylococcus aureus. The experiment is described as follows: Antimicrobial activity against methicillin-resistant Staphylococcus aureus CCARM 3167 assessed as inhibition of microbial growth incubated for 24 hrs by two-fold serial dilution assay.
A further experiment deals with Klebsiella pneumoniae. The experiment is described as follows: Antibacterial activity against colistin resistant Klebsiella pneumoniae assessed as inhibition of bacterial growth incubated for 24 hrs.
A further experiment concerns Enterococcus faecalis. The experiment is described as follows: Antibacterial activity against multidrug-resistant Enterococcus faecalis assessed as inhibition of bacterial growth incubated for 12 to 36 hrs by broth dilution method. The conditions noted are these: time 12-36 hrs. (In general: Dilution methods test growth across graded concentrations, often in twofold steps.)

The test system of experiment [10] is Staphylococcus aureus. The experiment is described as follows: Antibacterial activity against methicillin-resistant Staphylococcus aureus assessed as inhibition of bacterial growth incubated for 12 to 36 hrs by broth dilution method. The settings on record: time 12-36 hrs.
Experiment [11] concerns Staphylococcus aureus. The experiment is described as follows: Antibacterial activity against Staphylococcus aureus assessed as inhibition of bacterial growth by two-fold serial dilution assay.
In experiment [12] the test system is Staphylococcus aureus. The experiment is described as follows: Antibacterial activity against methicillin-resistant Staphylococcus aureus assessed as inhibition of bacterial growth by two-fold serial dilution assay.
Experiment [13] has as its system Staphylococcus aureus. The experiment is described as follows: Antibacterial activity against Staphylococcus aureus ATCC 25923 assessed as inhibition of bacterial growth by two-fold serial dilution assay.
The test system of experiment [14] is Staphylococcus aureus. The experiment is described as follows: Antibacterial activity against Staphylococcus aureus ATCC 29213 assessed as inhibition of bacterial growth by two-fold serial dilution assay.
Experiment [15] relates to Staphylococcus aureus. The experiment is described as follows: Antibacterial activity against Staphylococcus aureus ATCC 25923 assessed as inhibition of bacterial growth incubated for 24 hrs by broth dilution assay.
Experiment [16] deals with Staphylococcus aureus. The experiment is described as follows: Antibacterial activity against methicillin-resistant Staphylococcus aureus clinical isolate assessed as inhibition of bacterial growth incubated for 24 hrs by broth dilution assay.
Experiment [17] relates to Staphylococcus aureus. The experiment is described as follows: Antibacterial activity against methicillin-resistant Staphylococcus aureus N315 assessed as inhibition of bacterial growth by micro broth dilution method.
The test system of experiment [18] is Escherichia coli. The experiment is described as follows: Antibacterial activity against Escherichia coli assessed as inhibition of bacterial growth by micro broth dilution method.

In brackets after ≈: the same amount, converted by molar mass.

As for `CCn1c2ccccc2c2cc3c(cc21)C(=O)CCC(=O)N3`, the zone of inhibition at 400 µg/mL worked out at 20 mm in the experiment on Escherichia coli [1]; 27 mm in the experiment on Bacillus subtilis [2]; 16 mm in the experiment on Pseudomonas aeruginosa; 19 mm in the experiment with Macrophomina phaseolina; 18 mm in the experiment on Fusarium oxysporum; 19 mm in the experiment with Aspergillus flavus.

As usually defined, the MIC is the lowest concentration that inhibits growth of the organism. Take `c1ccc2c(c1)c1ccccc1n2Cn1cncn1`: the MIC amounted to 0.016 µg/mL (≈ 0.0644 µM) with Candida albicans [3], 31.2 µg/mL (≈ 126 µM) in the experiment on Bacillus subtilis [4], 31.2 µg/mL (≈ 126 µM) in the experiment on Proteus mirabilis and 31.2 µg/mL (≈ 126 µM) in the experiment on Staphylococcus aureus [5].

For `CN(C)C1=NC(c2ccc3c(c2)c2ccccc2n3Cc2ccc(Cl)cc2Cl)N=C(N)N1` (stereo unspecified), the MIC in the experiment with Escherichia coli [6], in the experiment on Staphylococcus aureus [7], in the experiment with Candida albicans [8], in the experiment with Streptococcus mutans and in the experiment on Staphylococcus aureus [9] was 0.5 µg/mL throughout.

For `CCn1c2ccccc2c2c3[nH]c(C(=O)NNC(=O)c4ccc([N+](=O)[O-])cc4)cc3ccc21`, the MIC with Klebsiella pneumoniae is 64 µg/mL (≈ 145 µM).

In the case of `Oc1cc(-c2ccc3c(c2)[nH]c2ccccc23)cc(O)c1O`, the figures for the MIC in the experiment with Enterococcus faecalis and with Staphylococcus aureus [10] were 6.25 µg/mL (≈ 21.5 µM) and 3.13 µg/mL (≈ 10.7 µM), respectively.

For the molecule `Sc1nnc(Cn2c3ccc(Br)cc3c3cc(Br)ccc32)o1`, the MIC in the experiment with Staphylococcus aureus [11], in the experiment with Staphylococcus aureus [12], in the experiment on Staphylococcus aureus [13] and in the experiment on Staphylococcus aureus [14] was 0.6 µM (≈ 0.263 µg/mL) throughout.

`CCn1c2ccccc2c2c(Cl)c(N/N=C(/C(C)=O)N3CCN(CCO)CC3)ccc21`: the MIC in the experiment with Staphylococcus aureus [15] stood at 3.12 µg/mL (≈ 7.07 µM); in the experiment on Staphylococcus aureus [16], 1.56 µg/mL (≈ 3.53 µM).

Regarding `Cn1c(=O)c2ncn(CC(O)Cn3c4ccccc4c4cc(Br)ccc43)c2n(C)c1=O` (stereo unspecified), the MIC in the experiment with Staphylococcus aureus [17] worked out at 8 µM (≈ 3.86 µg/mL); in the experiment with Escherichia coli [18], 33 µM (≈ 15.9 µg/mL).

The values above are taken from ChEMBL document CHEMBL5532637, “Antimicrobial activity of natural and semi-synthetic carbazole alkaloids” (Eur J Med Chem, 2023).
